Measurements: BindingDB's records for patent US11066409 (Shionogi, 2021)

Target: T1, P2X purinoceptor 7 [R270H] (Homo sapiens, UniProt Q99572, R270H)
T1 construct: gene P2RX7
Assay: Inhibition Assay
Protocol: Evaluation of a human P2X7 receptor inhibitory activity Stably expressing cell line (1321N1 cell transfected with the human P2X7 receptor gene (GenBank accession number NM_002562.5 including T606C and G952A SNP)) was used. The cells were seeded in a 384-well microtiter plate at a concentration of 8000 cells/well and cultured in the medium (10% fetal bovine serum, 25 mM HEPES, 1% penicillin and streptomycin in DMEM) for one day at 37° C. under 5% carbon dioxide atmosphere. After replacing with 20 μL of the HBSS buffer (20 mM HEPES, 55.6 mM D-glucose, 1× HBSS(−), pH7.4-7.5), 15 μL of 17.3 μM Yo-Pro solution in the HBSS buffer was added. The plate was placed in high-throughput cellular screening system FLIPR TETRA (Molecullar Devices, LLC.) and 15 μL of 130 μM BzATP solution in the HBSS buffer was added. Measurement of fluorescence intensity by FLIPR TETRA was started. After eight minutes, 15 μL of DMSO solutions containing different concentrations of the compound of the present invention as prepared by dilution with the HBSS buffer were dispensed to each well through the built-in automatic dispenser, and the measurement of fluorescence intensity was continued for 20 minutes. The maximum fluorescence intensity without the compound of the present invention is calculated as 0% inhibition and the maximum fluorescence intensity when the reference compound was added is calculated as 100% inhibition.

T1 sequence (Q99572 whole entry R270H, looked up): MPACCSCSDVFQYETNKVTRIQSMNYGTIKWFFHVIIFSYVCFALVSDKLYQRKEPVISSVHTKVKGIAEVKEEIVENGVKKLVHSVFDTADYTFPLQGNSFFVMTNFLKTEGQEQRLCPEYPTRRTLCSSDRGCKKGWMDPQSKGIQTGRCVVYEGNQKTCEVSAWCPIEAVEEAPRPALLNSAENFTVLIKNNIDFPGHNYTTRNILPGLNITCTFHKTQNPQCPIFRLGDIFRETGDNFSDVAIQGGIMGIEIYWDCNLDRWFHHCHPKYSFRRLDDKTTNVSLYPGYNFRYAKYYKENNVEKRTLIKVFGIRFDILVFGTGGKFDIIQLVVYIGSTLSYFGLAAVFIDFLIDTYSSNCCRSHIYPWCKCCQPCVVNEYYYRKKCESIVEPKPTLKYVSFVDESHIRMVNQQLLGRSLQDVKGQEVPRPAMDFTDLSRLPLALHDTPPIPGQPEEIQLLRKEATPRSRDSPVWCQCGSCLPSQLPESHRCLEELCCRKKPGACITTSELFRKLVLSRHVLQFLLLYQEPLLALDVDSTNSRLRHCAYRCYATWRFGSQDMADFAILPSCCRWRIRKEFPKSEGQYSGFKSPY

SMILES | IC50 [nM]
Cc1cc(F)c(CO)cc1NC1=NC(=O)N(C)C2=NCC(c3cc(F)c(F)c(F)c3)N12 (stereo not drawn) [US11066409, Compound I-0168] | 23
COc1cc(Nc2nc(=O)c(F)c3n2C(c2cc(F)cc(F)c2)CC3)c(C)cc1F (stereo not drawn) [US11066409, Compound I-0099] | < 10
Cc1ccc(OCCO)cc1NC1=NC(=O)N(C)C2=NCC(c3cc(F)c(F)c(F)c3)N12 (stereo not drawn) [US11066409, Compound I-0171] | 19
